In the supplement of paper PMC10307832:

Tests used:
Test in all cases: relative viability (nuclei count vs DMSO), 5 days (fraction); higher = more cells survive
NCI-H1623 = tested on: NCI-H1623
In short: (§1)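 Medians of duplicate plates are given as relative viability. That measure is the nuclei count in treated wells divided by the count in vehicle wells. Counts were taken on 4× images of lung cancer cell lines in 1536-well plates, 5 days after pin-tool dosing the day after seeding with one drug alone or a fixed anchor-drug dose plus five library-drug doses (not always all listed) in √10 steps.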

A-427 = tested on: A-427
In short: as §1

NCI-H2009 = tested on: NCI-H2009
In short: as §1

NCI-H1650 = tested on: NCI-H1650
In short: as §1

UMC-11 = tested on: UMC-11
In short: as §1

NCI-H1734 = tested on: NCI-H1734
In short: as §1

A549 = tested on: A549
In short: as §1

CAL-12T = tested on: CAL-12T
In short: as §1

LK-2 = tested on: LK-2
In short: as §1

COc1cc2nccc(Oc3ccc(NC(=O)Nc4cc(C)on4)c(Cl)c3)c2cc1OC [Tivozanib] + N=C(N)NC(=N)NCCc1ccccc1 [Phenformin] (partner 250 µM)
relative viability (NCI-H1623; first compound 0.005 µM): 0.582 | relative viability (NCI-H1623; first compound 0.01581 µM): 0.622 | relative viability (NCI-H1623; first compound 0.05 µM): 0.588 | relative viability (NCI-H1623; first compound 0.5 µM): 0.607 | relative viability (A-427; first compound 0.005 µM): 0.337 | relative viability (A-427; first compound 0.01581 µM): 0.308 | relative viability (A-427; first compound 0.05 µM): 0.363 | relative viability (A-427; first compound 0.1581 µM): 0.315 | relative viability (A-427; first compound 0.5 µM): 0.241 | relative viability (NCI-H2009; first compound 0.005 µM): 0.448 | relative viability (NCI-H2009; first compound 0.01581 µM): 0.473 | relative viability (NCI-H2009; first compound 0.05 µM): 0.453 | relative viability (NCI-H2009; first compound 0.1581 µM): 0.478 | relative viability (NCI-H2009; first compound 0.5 µM): 0.344 | relative viability (NCI-H1650; first compound 0.005 µM): 0.454 | relative viability (NCI-H1650; first compound 0.01581 µM): 0.515 | relative viability (NCI-H1650; first compound 0.05 µM): 0.486 | relative viability (NCI-H1650; first compound 0.1581 µM): 0.497 | relative viability (NCI-H1650; first compound 0.5 µM): 0.353 | relative viability (UMC-11; first compound 0.005 µM): 0.324 | relative viability (UMC-11; first compound 0.01581 µM): 0.332 | relative viability (UMC-11; first compound 0.05 µM): 0.329 | relative viability (UMC-11; first compound 0.5 µM): 0.25 | relative viability (NCI-H1734; first compound 0.005 µM): 0.343 | relative viability (NCI-H1734; first compound 0.01581 µM): 0.365 | relative viability (NCI-H1734; first compound 0.05 µM): 0.371 | relative viability (NCI-H1734; first compound 0.1581 µM): 0.362 | relative viability (NCI-H1734; first compound 0.5 µM): 0.383 | relative viability (A549; first compound 0.005 µM): 0.171 | relative viability (A549; first compound 0.01581 µM): 0.163 | relative viability (A549; first compound 0.05 µM): 0.19 | relative viability (A549; first compound 0.1581 µM): 0.124 | relative viability (A549; first compound 0.5 µM): 0.209 | relative viability (CAL-12T; first compound 0.005 µM): 0.538 | relative viability (CAL-12T; first compound 0.01581 µM): 0.554 | relative viability (CAL-12T; first compound 0.05 µM): 0.494 | relative viability (CAL-12T; first compound 0.1581 µM): 0.625 | relative viability (CAL-12T; first compound 0.5 µM): 0.558 | relative viability (LK-2; first compound 0.005 µM): 0.459 | relative viability (LK-2; first compound 0.01581 µM): 0.457 | relative viability (LK-2; first compound 0.05 µM): 0.512 | relative viability (LK-2; first compound 0.1581 µM): 0.283 | relative viability (LK-2; first compound 0.5 µM): 0.199

CC(=O)O[C@@]12CO[C@@H]1C[C@H](O)[C@@]1(C)C(=O)[C@H](O)C3=C(C)[C@@H](OC(=O)[C@H](O)[C@@H](NC(=O)OC(C)(C)C)c4ccccc4)C[C@@](O)([C@@H](OC(=O)c4ccccc4)[C@H]21)C3(C)C [Docetaxel] + N=C(N)NC(=N)NCCc1ccccc1 [Phenformin] (partner 250 µM)
relative viability (NCI-H1623; first compound 0.0002 µM): 0.54 | relative viability (NCI-H1623; first compound 0.000632 µM): 0.568 | relative viability (NCI-H1623; first compound 0.002 µM): 0.494 | relative viability (NCI-H1623; first compound 0.006325 µM): 0.313 | relative viability (NCI-H1623; first compound 0.02 µM): 0.239 | relative viability (A-427; first compound 0.0002 µM): 0.324 | relative viability (A-427; first compound 0.000632 µM): 0.328 | relative viability (A-427; first compound 0.002 µM): 0.165 | relative viability (A-427; first compound 0.006325 µM): 0.149 | relative viability (A-427; first compound 0.02 µM): 0.12 | relative viability (NCI-H2009; first compound 0.0002 µM): 0.483 | relative viability (NCI-H2009; first compound 0.000632 µM): 0.526 | relative viability (NCI-H2009; first compound 0.002 µM): 0.463 | relative viability (NCI-H2009; first compound 0.006325 µM): 0.321 | relative viability (NCI-H2009; first compound 0.02 µM): 0.202 | relative viability (NCI-H1650; first compound 0.0002 µM): 0.349 | relative viability (NCI-H1650; first compound 0.000632 µM): 0.287 | relative viability (NCI-H1650; first compound 0.006325 µM): 0.147 | relative viability (NCI-H1650; first compound 0.02 µM): 0.0956 | relative viability (UMC-11; first compound 0.0002 µM): 0.309 | relative viability (UMC-11; first compound 0.000632 µM): 0.332 | relative viability (UMC-11; first compound 0.002 µM): 0.228 | relative viability (UMC-11; first compound 0.006325 µM): 0.205 | relative viability (UMC-11; first compound 0.02 µM): 0.199 | relative viability (NCI-H1734; first compound 0.0002 µM): 0.296 | relative viability (NCI-H1734; first compound 0.000632 µM): 0.338 | relative viability (NCI-H1734; first compound 0.002 µM): 0.232 | relative viability (NCI-H1734; first compound 0.006325 µM): 0.221 | relative viability (NCI-H1734; first compound 0.02 µM): 0.168 | relative viability (A549; first compound 0.0002 µM): 0.203 | relative viability (A549; first compound 0.000632 µM): 0.0682 | relative viability (A549; first compound 0.002 µM): 0.0555 | relative viability (A549; first compound 0.006325 µM): 0.0466 | relative viability (A549; first compound 0.02 µM): 0.0476 | relative viability (CAL-12T; first compound 0.0002 µM): 0.522 | relative viability (CAL-12T; first compound 0.000632 µM): 0.305 | relative viability (CAL-12T; first compound 0.002 µM): 0.185 | relative viability (CAL-12T; first compound 0.006325 µM): 0.135 | relative viability (CAL-12T; first compound 0.02 µM): 0.118 | relative viability (LK-2; first compound 0.0002 µM): 0.369 | relative viability (LK-2; first compound 0.000632 µM): 0.27 | relative viability (LK-2; first compound 0.002 µM): 0.118 | relative viability (LK-2; first compound 0.006325 µM): 0.153 | relative viability (LK-2; first compound 0.02 µM): 0.124
